Measurements published in patent publication US9486507B2, “Pro-coagulant compounds and methods of use thereof” (priority 2011, dated 2016).

What was measured:
Type in all cases: biochemical
[1] = system: FVIII deficient human plasma; experiment: Thrombin generation assay (TGA) in FVIII-deficient plasma; parameters: key to Thrombin Above Baseline (nM): 1-10 nM (1) or 1-29 nM (2) (+); 11-20 nM (1) or 30-59 nM (2) (++); 21-30 nM (1) or 60-90 nM (2) (+++); >30 nM (1) or >90 nM (2) (++++); At or about baseline (−)
FIXa = FIXa (Homo sapiens, UniProt P00740); experiment: FXa generation assay with human FIXa; parameters: purchased Haematologic Technologies
Source text: FXa generation was utilized to assess the capability of the compounds of the present disclosure to enhance the catalytic activities of FIXa and/or FVIIa.
To measure the catalytic activity of FIXa, FIXa was mixed with FX and phospholipids in the presence of calcium chloride. Under these conditions FIXa cleaves the zymogen FX into the active form FXa.
The generation of FXa is monitored by the change in absorbance of the reaction at 405 nm due to the presence of a cleavable FXa chromogenic substrate (S-2765; Z-D-Arg-Gly-Arg-pNA; cleavage of p-nitroaniline). […] The kit contains all the FXa generation components, however, FIXa and FX obtained from this kit are from a bovine origin and were replaced with purified human FIXa or human FVIIa and human FX (Haematologic Technologies).
The assay was also modified to enhance the screening throughput. Instead of the sequential addition, all the assay components were mixed and added simultaneously to the purified compound to be assayed. A 125 μl reaction mix of the assay components was prepared in the buffer supplied by the manufacturer (50 mM Tris 7.3, and 1% BSA). […] The reaction mix (125 ul) was then added to 25 ul of compound diluted in water in a Costar-3651 flat bottom 96-well plate. […] The absorbance was monitored over a period of 1 hour at 405 nm using a plate reader (Synergy 2, Biotek).
The 405 nm absorbance data were then analyzed to obtain the slope of the first derivative which reflects the rate of change in absorbance. The first derivative slope data for each compound concentration were plotted against the compound concentration and fitted to a four-parameter equation to obtain the EC50 and Vmax values for each compound tested.

[2] = system: 10% FVIII-deficient human plasma; experiment: Modified activated partial thromboplastin time (aPTT*) assay
Method: For the activated Partial Thromboplastin Time (aPTT) assay peptides to be tested were first diluted in 10% FVIII-deficient human plasma. For the aPTT* the peptides were diluted in 10% FVIII-deficient human plasma that contained traces of hFIXa (anywhere between 0 and 8.8 nM hFIXa depending on the assay) in Tris/NaCl/BSA buffer. The peptides were incubated for 10 minutes at room temperature and then assayed for clotting on a Sysmex instrument that recorded the clotting time observed for each sample. The times were compared to those of a standard curve derived from standards with known FVIII activity (U/mL) in order to determine the clotting outcome.

[3] = Precision Biologics FVIII-deficient plasma (2), second Baseline (2) series, 2.5 μM
[4] = Precision Biologics FVIII-deficient plasma (2), second Baseline (2) series, 5 μM
[5] = Precision Biologics FVIII-deficient plasma (2), second Baseline (2) series, 10 μM
[6] = Precision Biologics FVIII-deficient plasma (2), second Baseline (2) series, 20 μM
[7] = FXa generation assay, 10 nM hFIXa, 100 nM hFX, class symbols
[8] = Precision Biologics FVIII-deficient plasma (2), first Baseline (2) series, 2.5 μM
[9] = Precision Biologics FVIII-deficient plasma (2), first Baseline (2) series, 5 μM
[10] = Precision Biologics FVIII-deficient plasma (2), first Baseline (2) series, 10 μM
[11] = FXa generation assay using human FIXa, class symbols

FIXa, sequence (P00740 47-191 limits assumed): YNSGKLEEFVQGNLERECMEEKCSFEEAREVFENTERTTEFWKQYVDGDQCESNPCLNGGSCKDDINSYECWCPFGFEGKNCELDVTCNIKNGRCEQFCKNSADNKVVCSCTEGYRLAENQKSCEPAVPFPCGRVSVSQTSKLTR
FIXa, sequence (P00740 227-461 limits assumed): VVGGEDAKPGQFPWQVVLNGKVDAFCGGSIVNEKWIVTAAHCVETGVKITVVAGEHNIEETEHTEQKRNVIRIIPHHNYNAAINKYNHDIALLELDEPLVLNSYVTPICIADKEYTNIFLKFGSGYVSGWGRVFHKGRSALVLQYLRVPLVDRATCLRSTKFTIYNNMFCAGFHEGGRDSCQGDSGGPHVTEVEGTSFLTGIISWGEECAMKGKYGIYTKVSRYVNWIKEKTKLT

PRSRTVGPGSRSASGKSTCLASYCWLFWTGIA
Thrombin Above Baseline (nM) [1, 3]: ++ (11-20 nM (1) or 30-59 nM (2) (++))
Thrombin Above Baseline (nM) [1, 4]: +++ (21-30 nM (1) or 60-90 nM (2) (+++))
Thrombin Above Baseline (nM) [1, 5]: ++++ (>30 nM (1) or >90 nM (2) (++++))
Thrombin Above Baseline (nM) [1, 6]: ++++ (>30 nM (1) or >90 nM (2) (++++))
Vmax (FIXa; [7]): (++++) ((++++)>3)

PSIRTVGPGSRSASGKLTCLASYCWLFWTGIA
Thrombin Above Baseline (nM) [1, 8]: + (1-10 nM (1) or 1-29 nM (2) (+))
Thrombin Above Baseline (nM) [1, 9]: + (1-10 nM (1) or 1-29 nM (2) (+))
Thrombin Above Baseline (nM) [1, 10]: + (1-10 nM (1) or 1-29 nM (2) (+))
Vmax (FIXa; [7]): (++++) ((++++)>3)

PWRRFWAWNPRSLALSTWFGRGCD [Compound 8, reference compound]
TGA activity in the presence of FVIII ([1]; 0.1 U/mL FVIII, compound 7 100-6.3 uM, compounds 8 and 9 50-3.1 uM): competes with FVIII

SRIRTVGPGSRSASGKLTCLASYCWLFWTGIA
Thrombin Above Baseline (nM) [1, 8]: ++ (11-20 nM (1) or 30-59 nM (2) (++))
Thrombin Above Baseline (nM) [1, 9]: +++ (21-30 nM (1) or 60-90 nM (2) (+++))
Thrombin Above Baseline (nM) [1, 10]: ++++ (>30 nM (1) or >90 nM (2) (++++))
Vmax (FIXa; [7]): (++++) ((++++)>3)

SRIRTVGPGSRSASGKSTCLASYCWLFWTGIA
Thrombin Above Baseline (nM) [1, 3]: +++ (21-30 nM (1) or 60-90 nM (2) (+++))
Thrombin Above Baseline (nM) [1, 4]: ++++ (>30 nM (1) or >90 nM (2) (++++))
Thrombin Above Baseline (nM) [1, 5]: ++++ (>30 nM (1) or >90 nM (2) (++++))
Vmax (FIXa; [7]): (++++) ((++++)>3)

SRIRTVSPGSRSASGKSTCLASYCWLFWTGIA
Thrombin Above Baseline (nM) [1, 3]: +++ (21-30 nM (1) or 60-90 nM (2) (+++))
Thrombin Above Baseline (nM) [1, 4]: +++ (21-30 nM (1) or 60-90 nM (2) (+++))
Thrombin Above Baseline (nM) [1, 5]: ++++ (>30 nM (1) or >90 nM (2) (++++))
Thrombin Above Baseline (nM) [1, 6]: ++++ (>30 nM (1) or >90 nM (2) (++++))
Vmax (FIXa; [7]): (++++) ((++++)>3)

SRSRTVSPGSRSASGKSTCLASYCWLFWTGIA
Thrombin Above Baseline (nM) [1, 3]: +++ (21-30 nM (1) or 60-90 nM (2) (+++))
Thrombin Above Baseline (nM) [1, 4]: ++++ (>30 nM (1) or >90 nM (2) (++++))
Thrombin Above Baseline (nM) [1, 5]: ++++ (>30 nM (1) or >90 nM (2) (++++))
Vmax (FIXa; [7]): (++++) ((++++)>3)

VSGTGRLTCVASYCWMFQLGSF
Vmax (FIXa; [11]): (++) ((++) 1-2)

WHERQQLTCLASYCGLFVGQVA
Vmax (FIXa; [11]): (+) ((+)<1)

WVPQWKVTCLASCSRLFHGFDA
Vmax (FIXa; FXa generation assay using human FIXa, numeric bounds): >1.5

YARDSTLTCQARTCQLVDYLGP
Vmax (FIXa; [11]): (+) ((+)<1)

k-MeLeu-TCLASYCWLF
Thrombin Above Baseline (nM) ([1]; HRF FVIII-deficient plasma (1), 2.5 μM): + (1-10 nM (1) or 1-29 nM (2) (+))
Thrombin Above Baseline (nM) ([1]; HRF FVIII-deficient plasma (1), 5 μM): −
Thrombin Above Baseline (nM) ([1]; HRF FVIII-deficient plasma (1), 10 μM): −
Thrombin Above Baseline (nM) ([1]; HRF FVIII-deficient plasma (1), 20 μM): + (1-10 nM (1) or 1-29 nM (2) (+))
Vmax (FIXa; [11]): (++++) ((++++)>3)
Vmax (FIXa; FXa generation assay, 10 nM hFIXa, 100 nM hFX, class symbols, listed as SEQ ID NO: 232): (+++) ((+++)>2)

k-MeLeu-TCLASYCWLF [Compound 2]
Clotting time ([2]; aPTT* with FIXa, 5 μM): 50.3 s
Clotting time, sec ([2]; aPTT* with FIXa, 5 μM): 51.1; sec
Clotting time ([2]; aPTT* with FIXa, 10 μM): 42.2 s
Clotting time, sec ([2]; aPTT* with FIXa, 10 μM): 42.9; sec
Clotting time ([2]; aPTT* with FIXa, 20 μM): 42.3 s
Clotting time, sec ([2]; aPTT* with FIXa, 20 μM): 42.4; sec
Clotting time ([2]; aPTT*, FIXa 1 nM): 91.4 s
Clotting time, sec ([2]; aPTT*, FIXa 1 nM): 86.8; sec
Clotting time ([2]; aPTT*, FIXa 2 nM): 49.6 s
Clotting time, sec ([2]; aPTT*, FIXa 2 nM): 51.3; sec
Clotting time ([2]; aPTT*, FIXa 4 nM): 42.7 s
Clotting time, sec ([2]; aPTT*, FIXa 4 nM): 46.0; sec
Clotting time ([2]; aPTT*, FIXa 8 nM): 37.1 s
Clotting time, sec ([2]; aPTT*, FIXa 8 nM): 34.4; sec
Vmax (FIXa; [7]): (++++) ((++++)>3)
Vmax (mOD/min min) (FIXa; PL: No): 3.05 mOD/min min
Vmax (mOD/min min) (FIXa; PL: Yes): 4.22 mOD/min min
